Where two headings read alike, the source gives them in different places. Non-standard residues stand in square brackets, D forms with d. Residues, ends and D or L forms follow the SMILES beside them. *: point of attachment. Dolaproine = CO[C@@H]([C@@H]1CCCN1)[C@@H](C)C(=O)O; Dil = CC[C@H](C)[C@H](NC)[C@@H](CC(=O)O)OC; Phe(3-NH2) = Nc1cccc(C[C@H](N)C(=O)O)c1; NMe2Val = CC(C)[C@@H](C(=O)*)N(C)C
Tests used:
Assay in all cases: Cytotoxicity test for compounds (CellTiter-Glo cell proliferation inhibition)
Format in all cases: cell-based
[1] = tested on: Human gastric cancer cells NCI-N87
Experimental: (§1) Biological Test Example 1: Cytotoxicity Test for Compounds
(§2) • 96-well clear flat-bottom white plate (Corning, #3610) • RPMI1640 culture medium (Gibco, #A10491-01) • Fetal Bovine Serum (Sigma-Aldrich, #F8687-500ML) • CellTiter-Glo® Luminescent Cell Viability Assay (Promega, # G7572/G7571)
(§3) Human gastric cancer cells NCI-N87 (ATCC, Cat. No.: CRL-5822), human breast cancer cells MDA-MB-468 (Cell Bank of the Committee for Type Culture Collection of the Chinese Academy of Sciences, Cat. No.: TCHu136), and human breast cancer cells KPL-4 (Nanjing Cobioer Biosciences Co., Ltd., Cat. No.: CBP60379) were washed with PBS and digested with 0.25% Trypsin-EDTA trypsin for about 3-10 min. The digestion was terminated with a complete cell culture medium. The cells were centrifuged at 1000 rpm for 5 min, and the supernatant was discarded. The cells were resuspended in a complete cell culture medium. The cell number was counted using a cell counter, and the cells were adjusted to the desired density. 90.0 µL of the cell suspension was added to each well at 3000 cells/well. The cell plate was incubated in a cell incubator at 37°C with 5% CO2 overnight.
(§4) In the experiment, a DMSO control group and test sample groups were set. The cell plate was removed from the incubator to observe cell adherence. After the cells adhered, 10.00 µL of the sample (starting from a final concentration of 10 µM, 5-fold dilution, 9 concentrations) was added to each well. After the mixture was gently shaken uniformly, the plate was incubated in the incubator.
(§5) After 3 days of incubation, 100.0 µL/well of CellTiter-Glo™ (Promega, Cat. No.: G7572/G7571) working solution was added. The plate was shaken on a thermostatic shaker to lyse the cells. After 10 min, the plate was read on a microplate reader.
(§6) Data analysis: GraphPad Prism 8.0 software was used to plot a graph with the Log value of the sample concentration as the abscissa and the Inhibition% as the ordinate. The data were analyzed by Nonlinear regression (curve fit) to obtain the IC50 value of each test sample. Table 1. Inhibition activity of compounds of the present disclosure on cell proliferation

[2] = tested on: human breast cancer cells KPL-4
Experimental: as §1, §2, §3, §4, §5, §6

[3] = tested on: human breast cancer cells MDA-MB-468
Experimental: as §1, §2, §3, §4, §5, §6

[4] = Homo sapiens, NCI-N87, 72 h, read-out: NCI-87/IC50 (nM)
[5] = Homo sapiens, KPL4, 72 h, read-out: KPL-4/IC50 (nM)
[6] = Homo sapiens, MDA-MB-468, 72 h, read-out: MDA-MD-468/IC50 (nM)
[7] = Homo sapiens, NCI-N87, 72 h, 3 days of incubation, CellTiter-Glo, read-out: NCI-87/IC50
[8] = Homo sapiens, KPL4, 72 h, 3 days of incubation, CellTiter-Glo, read-out: KPL-4/IC50
[9] = Homo sapiens, MDA-MB-468, 72 h, 3 days of incubation, CellTiter-Glo, read-out: MDA-MD-468/IC50

SMILES | IC50 [1, 4] [nM] | IC50 [2, 5] [nM] | IC50 [3, 6] [nM] | IC50 [1, 7] [nM] | IC50 [2, 8] [nM] | IC50 [3, 9] [nM] | further results
C=C(C)C(Cc1cccc(N)c1)OC(=O)[C@H](C)[C@@H](OC)[C@@H]1CCCN1C(=O)C[C@@H](OC)[C@H]([C@@H](C)CC)N(C)C(=O)[C@@H](NC(=O)[C@H](C(C)C)N(C)C)C(C)C (stereo partly drawn) [Example 31] | < 0.0256 | < 0.0256 | 0.11 | – | – | – | –
C=CCN(CCc1cccc(N)c1)C(=O)[C@H](C)[C@@H](OC)[C@@H]1CCCN1C(=O)C[C@@H](OC)[C@H]([C@@H](C)CC)N(C)C(=O)[C@@H](NC(=O)[C@H](C(C)C)N(C)C)C(C)C [Example 5, (S)-N-((3R,4S,5S)-1-((S)-2-((1R,2R)-3-(allyl(3-aminophenethyl)amino)-1-methoxy-2-methyl-3-oxopropyl)pyrrolidin-1-yl)-3-methoxy-5-methyl-1-oxoheptan-4-yl)-2-((S)-2-(dimethylamino)-3-methylbutanamido)-N,3-dimethylbutanamide] | – | – | – | 4.28 | 3.56 | 8.81 | –
C=CC[C@H](Cc1cccc(N)c1)OC(=O)[C@H](C)[C@@H](OC)[C@@H]1CCCN1C(=O)C[C@@H](OC)[C@H]([C@@H](C)CC)N(C)C(=O)[C@@H](NC(=O)[C@H](C(C)C)N(C)C)C(C)C [Example 18] | < 0.0256 | < 0.0256 | < 0.0256 | – | – | – | –
CC[C@H](C)[C@@H]([C@@H](CC(=O)N1CCC[C@H]1[C@H](OC)[C@@H](C)C(=O)N1CCS[C@H](c2cccc(N)c2)C1)OC)N(C)C(=O)[C@@H](NC(=O)[C@H](C(C)C)N(C)C)C(C)C (single isomer, unassigned) [Example 60-P1] | – | – | – | 9.63 | 5.81 | 8.02 | –
CC[C@H](C)[C@@H]([C@@H](CC(=O)N1CCC[C@H]1[C@H](OC)[C@@H](C)C(=O)N[C@@H](Cc1cccc(N)c1)C(=O)NC)OC)N(C)C(=O)[C@@H](NC(=O)[C@H](C(C)C)N(C)C)C(C)C [Example 4, (S)-N-((3R,4S,5S)-1-((S)-2-((1R,2R)-3-(((S)-3-(3-aminophenyl)-1-(methylamino)-1-oxopropan-2-yl)amino)-1-methoxy-2-methyl-3-oxopropyl)pyrrolidin-1-yl)-3-methoxy-5-methyl-1-oxoheptan-4-yl)-2-((S)-2-(dimethylamino)-3-methylbutanamido)-N,3-dimethylbutanamide] (NMe2Val-V[Dil][Dolaproine][Phe(3-NH2)]-NHMe) | – | – | – | 14.7 | 5.26 | 6.12 | –
CC[C@H](C)[C@@H]([C@@H](CC(=O)N1CCC[C@H]1[C@H](OC)[C@@H](C)C(=O)OCCc1cccc(N)c1)OC)N(C)C(=O)[C@@H](NC(=O)[C@H](C(C)C)N(C)C)C(C)C [Example 13] | 0.58 | 0.18 | 0.56 | – | – | – | –
CC[C@H](C)[C@@H]([C@@H](CC(=O)N1CCC[C@H]1[C@H](OC)[C@@H](C)C(=O)N(O)CCc1cccc(N)c1)OC)N(C)C(=O)[C@@H](NC(=O)[C@H](C(C)C)N(C)C)C(C)C [Example 8, (S)-N-((3R,4S,SS)-1-((S)-2-((1R,2R)-3-((3-aminophenethyl)(hydroxy)amino)-1-methoxy-2-methyl-3-oxopropyl)pyrrolidin-1-yl)-3-methoxy-5-methyl-1-oxoheptan-4-yl)-2-((S)-2-(dimethylamino)-3-methylbutanamido)-N,3-dimethylbutanamide] | – | – | – | 0.66 | 0.14 | 0.56 | –
CCC(C)C(C(CC(=O)N1CCCC1C(OC)C(C)C(=O)OC(Cc1cccc(N)c1)C(=O)NC)OC)N(C)C(=O)C(NC(=O)C(C(C)C)N(C)C)C(C)C (stereo not drawn) [Example 30] | – | – | – | 5.62 | 2.42 | 0.72 | –
CC[C@H](C)[C@@H]([C@@H](CC(=O)N1CCC[C@H]1[C@H](OC)[C@@H](C)C(=O)O[C@H](C)Cc1cccc(N)c1)OC)N(C)C(=O)[C@@H](NC(=O)[C@H](C(C)C)N(C)C)C(C)C [Example 11, (R)-1-(3-aminophenyl)propan-2-yl (2R,3R)-3-((S)-1-((3R,4S,5S)-4-((S)-2-((S)-2-(dimethylamino)-3-methylbutanamido)-N,3-dimethylbutanamido)-3-methoxy-5-methylheptanoyl)pyrrolidin-2-yl)-3-methoxy-2-methylpropanoate] | – | – | – | 0.15 | 0.1 | 3 | –
CC[C@H](C)[C@@H]([C@@H](CC(=O)N1CCC[C@H]1[C@H](OC)[C@@H](C)C(=O)OC(/C=C/C(=O)OC)Cc1cccc(N)c1)OC)N(C)C(=O)[C@@H](NC(=O)[C@H](C(C)C)N(C)C)C(C)C (single isomer, unassigned) [Example 29] | – | – | – | – | – | – | IC50 ([1]; 3 days of incubation, CellTiter-Glo, read-out: NCI-87/IC50): 3.73 nM; IC50 ([2]; 3 days of incubation, CellTiter-Glo, read-out: KPL-4/IC50): < 0.0256 nM; IC50 ([3]; 3 days of incubation, CellTiter-Glo, read-out: MDA-MD-468/IC50): 3.17 nM
CC[C@H](C)[C@@H]([C@@H](CC(=O)N1CCC[C@H]1[C@H](OC)[C@@H](C)C(=O)OC1(Cc2cccc(N)c2)CC1)OC)N(C)C(=O)[C@@H](NC(=O)[C@H](C(C)C)N(C)C)C(C)C [Example 32] | < 0.0256 | < 0.0256 | < 0.0256 | – | – | – | –
CC[C@H](C)[C@@H]([C@@H](CC(=O)N1CCC[C@H]1[C@H](OC)[C@@H](C)C(=O)O[C@H](CF)Cc1cccc(N)c1)OC)N(C)C(=O)[C@@H](NC(=O)[C@H](C(C)C)N(C)C)C(C)C [Example 24] | < 0.0256 | < 0.0256 | < 0.0256 | – | – | – | –
CC[C@H](C)[C@@H]([C@@H](CC(=O)N1CCC[C@H]1[C@H](OC)[C@@H](C)C(=O)N1CCS(=O)(=O)[C@H](c2cccc(N)c2)C1)OC)N(C)C(=O)[C@@H](NC(=O)[C@H](C(C)C)N(C)C)C(C)C (single isomer, unassigned) [Example 61-P1] | – | – | – | 93.9 | 49.5 | 34.6 | –
CC[C@H](C)[C@@H]([C@@H](CC(=O)N1CCC[C@H]1[C@H](OC)[C@@H](C)C(=O)N[C@H](CCl)Cc1cccc(N)c1)OC)N(C)C(=O)[C@@H](NC(=O)[C@H](C(C)C)N(C)C)C(C)C [Example 1, (S)-N-((3R,4S,5S)-1-((S)-2-((1R,2R)-3-(((S)-1-(3-aminophenyl)-3-chloropropan-2-yl)amino)-1-methoxy-2-methyl-3-oxopropyl)pyrrolidin-1-yl)-3-methoxy-5-methyl-1-oxoheptan-4-yl)-2-((S)-2-(dimethylamino)-3-methylbutanamido)-N,3-dimethylbutanamide] | – | – | – | 0.74 | 0.41 | 0.63 | –
C#CC(Cc1cccc(N)c1)OC(=O)[C@H](C)[C@@H](OC)[C@@H]1CCCN1C(=O)C[C@@H](OC)[C@H]([C@@H](C)CC)N(C)C(=O)[C@@H](NC(=O)[C@H](C(C)C)N(C)C)C(C)C (single isomer, unassigned) [Example 21] | – | – | – | < 0.0256 | < 0.0256 | < 0.0256 | –
CC[C@H](C)[C@@H]([C@@H](CC(=O)N1CCC[C@H]1[C@H](OC)[C@@H](C)C(=O)O[C@H](CN=[N+]=[N-])Cc1cccc(N)c1)OC)N(C)C(=O)[C@@H](NC(=O)[C@H](C(C)C)N(C)C)C(C)C [Example 15] | 11.3 | 2 | 2.74 | – | – | – | –
CC[C@H](C)[C@@H]([C@@H](CC(=O)N1CCC[C@H]1[C@H](OC)[C@@H](C)C(=O)O[C@@H](C)Cc1cccc(N)c1)OC)N(C)C(=O)[C@@H](NC(=O)[C@H](C(C)C)N(C)C)C(C)C [Example 12, (S)-1-(3-aminophenyl)propan-2-yl (2R,3R)-3-((S)-1-((3R,4S,5S)-4-((S)-2-((S)-2-(dimethylamino)-3-methylbutanamido)-N,3-dimethylbutanamido)-3-methoxy-5-methylheptanoyl)pyrrolidin-2-yl)-3-methoxy-2-methylpropanoate] | – | – | – | 4.05 | 1.42 | 11.8 | –

— patent EP4786483A1, “AURISTATIN DERIVATIVE AND ANTIBODY-DRUG CONJUGATE THEREOF” (priority 2023, dated 2025)
